From US11015179B2, “Peptide having anti-viral effect and composition containing same” (priority 2015, dated 2021)

Assays:
IL-6 = IL-6 ELISA in culture supernatant of W4P-transfected Huh7 cell line; format: cell-based, human; details: Huh7, 10 μM, 48 hours
Experimental: It has been reported that HBV preS1 W4P variants are closely related to production of IL-6, which is an inflammation regulatory cytokine. Therefore, to observe an anti-inflammatory effect of PEP1 in IL-6-induced cell lines, 48 hours after the whole HBV W4P genome was injected into HepG2 and Huh7 cell lines which were then treated with 10 μM PEP1 and 10 μM 3TC, respectively, IL-6 levels in the culture supernatants were observed through ELISA.

HBV [1] = assay: HBsAg ELISA in whole HBV W4P genome-transfected HepG2 cell line; format: cell-based, hepatitis B virus; details: 48 hours
INFγ = INFγ activity of immune cells (FACS) in whole HBV W4P genome-transgenic mice; format: in vivo; details: 8 weeks; PEP1 50 μg/kg, 3TC 500 μg/kg; HBsAg stimulation 72 hours
Experimental: INF, which is a hormone-like cytokine, is secreted from immune cells against a virus. INFs are present in three types such as α, β and γ, and among these, INFγ is known to be critical for inhibiting the hepatitis B virus (HBV) in humans. Therefore, to observe the activity of INFγ, as an immune response, by the PEP1 peptide, 8 weeks after 50 μg/kg of the PEP1 peptide and 500 μg/kg of 3TC were injected into the caudal vein of each of transgenic mice prepared by injection of the whole HBV W4P variant genome twice a week, the whole blood was collected and a kidney was extracted from the mouse, and then immune cells were isolated and treated with HBsAg for stimulation. Seventy two hours after the stimulation, the INFγ cytokine was accumulated in cells by Brefeldin A and stained by an intracellular staining method for FACS analysis.

immune cells = assay: Distribution of immune cells (FACS) in whole HBV W4P genome-transgenic mice; format: in vivo; details: 3TC
Experimental: PEP1 is an HLA Class II-binding peptide derived from telomerase, and a 16-amino acid peptide triggering cytotoxic T-cell and helper T-cell immune responses. Therefore, to observe a change in the distribution of renal immune cells by the PEP1 peptide, transgenic mice were prepared by injecting the whole HBV W4P variant genome, on week 4, the whole blood was collected from the mice, and immune cells were isolated from the kidneys of the mice and then stained with lymphocyte markers (B cells (CD19B), CD4, CD8, NK1.1 cells) and myeloid cell markers (DC (CD11c), a macrophage marker (F4/80), a neutrophil marker (Ly-6G), a monocyte marker (Gr1)) according to an extracellular cell surface staining method for FACS analysis.

HBV [2] = assay: Virion production (real-time PCR of HBV DNA) in W4P-transfected Huh7 cell line; format: cell-based, hepatitis B virus; details: Huh7, 10 μM, 48 hours
Experimental: (§1) To observe the potential for virion proliferation of whole HBV containing W4P, virion DNA was extracted from the entire supernatant while the medium was changed every 24 hours by the above-described method, and subjected to real-time quantitative PCR using a Quantitech SYBR Green Master-Mix kit (Qiagen). The entire supernatant was centrifuged using an ultracentrifuge equipped with an SW28 swing rotor at 20,000 rpm for 2 hours to precipitate the virus, and the precipitated viral pellets were suspended with 200 μl of sterilized DW. […] Real-time PCR was performed at 40 cycles of 5 min at 95° C., 15 sec at 94° C., and 15 sec at 60° C. using the Exicycler™ 96 Real-Time Quantitative Thermal Block System (Bioneer Co., Korea), and the temperature was increased from 53° C. to 90° C. by modulating to 0 sec at 95° C., 30 sec at 53° C. and modulating by 0.1° C. per second to analyze a melting curve.
(§2) To observe the virion production in the supernatant after the inhibition of HBsAg secretion by the PEP1 peptide was observed, virions were collected from the supernatant obtained by the above-described method using PEG 6000, and HBV DNA was obtained using a virus DNA prep kit (Intron, Korea), and then quantified by real-time PCR.

HBV [3] = assay: Virion production (real-time PCR of HBV DNA) in W4P-transfected HepG2 cell line; format: cell-based, hepatitis B virus
Experimental: as §1
as §2, with “PCR. […]” for “PCR.”

macrophages = assay: Differentiation of macrophages (FACS) in whole HBV W4P genome-transgenic mice; format: in vivo; details: eight weeks; PEP1 50 μg/kg, 3TC 500 μg/kg; vs PBS
Experimental: Therefore, to observe if the PEP1 peptide is able to differentiate macrophages to M1, eight weeks after PBS, 50 μg/kg of the PEP1 peptide and 500 μg/kg of 3TC were injected into the caudal vein of each of transgenic mice prepared by injecting the whole HBV W4P variant genome twice a week, the whole blood was collected from the mouse and a kidney of the mouse was extracted, immune cells were isolated and stained with a macrophage marker (F4/80) and M1 marker MHCII through an extracellular cell surface staining method. Afterward, FACS analysis was carried out.

HSP 90, SOD, ERK, JAK2 = assay: Liver protein expression (western blotting) in whole HBV W4P genome-transgenic mice; format: in vivo; details: week 8; PEP1 50 μg/kg, 3TC 500 μg/kg
Experimental: To observe a change in protein expression affecting the antiviral effect by the PEP1 peptide, transgenic mice prepared by injecting the whole HBV W4P variant genome were used. The PEP1 peptide was injected into the caudal vein of the mouse at a concentration of 50 μg/kg twice a week. As a control group, 500 μg/kg of 3TC was injected like the PEP1 peptide. On week 8, the whole blood was collected from the mouse, and proteins were extracted from the liver of the mouse and subjected to western blotting to observe expression of the proteins.

HBV [4] = format: in vivo, mice; details: caudal vein twice a week; PEP1 50 μg/kg, 3TC 500 μg/kg
Experimental: HBV transgenic mice were prepared by injecting a 1.1-fold HBV base sequence comprising a full open reading frame (ORF) into the fertilized eggs of the mice through microinjection. The base sequence of HBV used in the research was obtained using a pHY92-W4P plasmid. The pHY92-W4P plasmid was digested with EcoRi before injection into the fertilized eggs of the mice, and finally a base sequence of 3.9 kb in length was used for microinjection. Produced subjects were selected through PCR using a specific sequence of HBsAg. PCR-positive subjects were selected according to the concentrations of serum HBsAg and HBeAg, and finally used as PCR-positive, HBsAg-positive, and HBeAg-positive mice in the study. These mice were backcrossed with C57BL/6 mice to produce heterologous HBV transgenic mice.
HBsAg levels in the HBV-transgenic mice were determined using an HBsAg ELISA kit (BIOKIT, Germany). To quantify HBV titers, total DNA was extracted and confirmed by real-time PCR.
In addition, HBV virion DNA was obtained from mouse serum and subjected to real-time PCR.

HBV [5] = assay: Antiviral effect with HSP90 blockage in whole HBV wild-type genome-transfected HepG2 cell line (real-time quantitative PCR); format: cell-based, hepatitis B virus; details: HepG2, ETV 30 nM, 24 hours
Experimental: PEP1 has been known to pass through a cell membrane from the outside to the inside of the cells in a shuttle method via HSP90. To confirm if the antiviral effect is reduced in cells by blocking the HSP90 activity based on such a mechanism, in this research, a HepG2 cell line was transiently transfected with the whole HBV wild-type genome, treated with anti-GAPDH, anti-HSP (1 ug/ml, blockage of HSP90 activity) and 17-AAG (1 μM) for 1 hour, ant then with PBS (0.5%), entecavir (ETV, 30 nM) and PEP1 (5 μM) for 24 hours. Subsequently, the supernatant was collected and treated with PEG6000 to precipitate the virus, and viral DNA was extracted and subjected to real-time quantitative PCR to observe an antiviral effect. All experiments are independently performed in triplicate, and a statistical significance test was performed using one-way ANOVA through the Tukey's Multiple Comparison Test. ** p<0.05 versus PBS, and ## p<0.05 versus None.

Nc1ccn([C@@H]2CS[C@H](CO)O2)c(=O)n1 [3TC, ramivudine]
IL-6 level in culture supernatant (IL-6): no effect on production of IL-6 cytokine | HBsAg inhibitory effect vs control group (HBV [1]; 3TC 10 μM, cell line not specified (Huh7, Huh7.5, HepG2 tested)): exhibited higher inhibitory effects than the control group | HBsAg in both pellets and supernatants (HBV [1]; HepG2, 3TC 0.01-100 μM): showed inhibitory effects according to concentration | INFγ activity of CD4, CD8 and NK1.1 cells (INFγ): slightly increased activity | Distribution of immune cells (immune cells): did not have an influence on the distribution of immune cells | Virions produced in the supernatant (HBV [2]): inhibitory effect | Virions produced in the supernatant (HBV [3]; HepG2, 10 μM, 48 hours): inhibitory effect | Virion synthesis according to concentration (HBV [3]; HepG2, 3TC): has an inhibitory effect on virion synthesis according to concentration | Distribution of macrophages among myeloid-derived cells (macrophages): did not show a difference | Number of cells differentiated to M1 (macrophages): did not show a difference | JAK2 phosphorylation in liver (HSP 90, SOD, ERK, JAK2): inhibited phosphorylation | Protein phosphorylation of ERK in liver (HSP 90, SOD, ERK, JAK2): inhibited phosphorylation | Level of HBsAg in serum, reduction effect on week 8 (HBV [4]): no such effect | Level of HBsAg in serum, up to 4 weeks (HBV [4]): neither the PEP1 peptide nor 3TC showed a reduction effect | Serum virion level, inhibitory effect on week 8 (HBV [4]): approximately 52% | Serum virion level, week 4 (HBV [4]): did not show virion inhibitory effects

C=C1[C@H](CO)[C@@H](O)C[C@@H]1n1cnc2c(=O)[nH]c(N)nc21 [ETV, entecavir]
Antiviral effect in untreated cells or cells treated with GAPDH, HSP90 or 17-AAG (HBV [5]): no difference in the antiviral effect
